The source of these data is US20110280807A1, “Methods and Models for Stress-Induced Analgesia” (UNIVERSITY OF GEORGIA RESEARCH FOUNDATION, INC., priority 2005, published 2011).

Entries after “also recorded” stand apart in the source; their conditions may differ.

The test system of assay [1] is rats subjected to brief, continuous footshock. The experiment in a line: Nonopioid stress-induced analgesia after brief continuous footshock, tail-flick test, systemic drug. The class given is in vivo, rat. (Thermal pain tests record how soon the animal reacts.)
Assay [2] relates to dorsolateral periaqueductal gray. The experiment in a line: PAG injection studies: microinjection into dorsolateral periaqueductal gray, stress analgesia. The class given is in vivo, rat. Particulars: for basal nociceptive thresholds immediately prior to the stressor: after microinjection into dorsolateral periaqueductal gray.
Assay [3] relates to rats. The experiment in a line: Tail-flick latencies in the absence of the stressor / basal nociceptive thresholds. The class given is in vivo, rat.
The target of a further assay is vanilloid VR1 receptors (Homo sapiens, UniProt Q8NER1). Conditions: cited from earlier work.
Chain of vanilloid VR1 receptors (Q8NER1 whole entry): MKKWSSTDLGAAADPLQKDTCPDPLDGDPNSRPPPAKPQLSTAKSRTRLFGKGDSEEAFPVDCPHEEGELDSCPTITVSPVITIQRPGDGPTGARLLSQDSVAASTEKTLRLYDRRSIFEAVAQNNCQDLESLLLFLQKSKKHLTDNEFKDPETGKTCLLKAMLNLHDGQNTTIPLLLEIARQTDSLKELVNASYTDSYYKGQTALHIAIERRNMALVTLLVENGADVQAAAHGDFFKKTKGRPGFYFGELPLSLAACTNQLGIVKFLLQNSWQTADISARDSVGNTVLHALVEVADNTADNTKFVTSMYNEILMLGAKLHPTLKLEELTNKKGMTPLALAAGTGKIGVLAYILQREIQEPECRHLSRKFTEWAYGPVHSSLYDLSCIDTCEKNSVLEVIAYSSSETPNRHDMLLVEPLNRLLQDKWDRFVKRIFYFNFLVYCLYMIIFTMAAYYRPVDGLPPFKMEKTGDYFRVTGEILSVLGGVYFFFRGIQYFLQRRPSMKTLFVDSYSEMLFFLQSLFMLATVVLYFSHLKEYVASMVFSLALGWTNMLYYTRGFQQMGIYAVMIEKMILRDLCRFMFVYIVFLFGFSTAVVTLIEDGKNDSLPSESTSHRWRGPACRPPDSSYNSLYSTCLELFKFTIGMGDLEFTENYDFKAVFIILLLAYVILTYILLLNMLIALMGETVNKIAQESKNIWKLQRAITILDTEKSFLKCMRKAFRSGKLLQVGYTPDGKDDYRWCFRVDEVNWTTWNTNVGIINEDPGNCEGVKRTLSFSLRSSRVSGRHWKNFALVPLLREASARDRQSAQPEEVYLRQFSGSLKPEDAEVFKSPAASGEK
Assay [4] deals with rats. Nature of the assay: Tolerance studies: repeated agonist injections, then footshock stress analgesia. The class given is in vivo, rat.
The test system of assay [5] is rats. Nature of the assay: Morphine antinociception in rats treated chronically with WIN55,212-2 or vehicle. The assay is classed as in vivo, rat. Particulars: morphine 2.5 mg/kg s.c. on day 15.
The subject of assay [6] is rats. The experiment in a line: Δ^9-THC sensitization study (antinociception after stress or no stress). The assay is classed as in vivo, rat. Conditions: 10 mg/kg i.p. 24 h following stress or no stress; tail-flick 28-32 min after drug.
Where [7] appears, read: 5 mg/kg i.p. 20 min prior to footshock.

Consider `CCCCC/C=C\C/C=C\C/C=C\C/C=C\CCCC(=O)NCCc1c[nH]c2ccc(O)cc12` [AA-5-HT, arachidonoylserotonin], for which, in assay [1] (10 mg/kg i.p., footshock 65 min following administration (FAAH inhibition study)), the “effect on stress analgesia (tail-flick latencies after footshock)” value was “Potentiation of SIA; also recorded: increased the magnitude and duration of cannabinoid stress analgesia”. In addition, in assay [2] (10 μg into dorsolateral periaqueductal gray, 35 min before footshock), the “effect on stress analgesia after site-specific administration” value was “enhanced SIA; also recorded: enhanced nonopioid stress analgesia”. In addition, the “basal nociceptive thresholds immediately prior to the stressor” value in assay [2] is given as “absence of changes in basal nociceptive thresholds”.
Take `Cc1c(C(=O)NN2CCCCC2)nn(-c2ccc(Cl)cc2Cl)c1-c1ccc(I)cc1` [AM251]: the basal nociceptive thresholds entry in the assay with rats [3] (5 mg/kg i.p., before the stressor) was “absence of changes in basal nociceptive thresholds”. The “effect on stress analgesia (tail-flick latencies after footshock)” value in assay [1] (setting [7]) is reported as “suppressed SIA; also recorded: blocked this stress analgesia”.
For the molecule `Cc1c(C(=O)NN2CCCCC2)nn(-c2ccc(Cl)cc2Cl)c1-c1ccc(Cl)cc1` [SR141716A], the “inhibition of vanilloid VR1 receptors” value at vanilloid VR1 receptors is recorded as “inhibits vanilloid VR1 receptors at high concentrations”. In the assay with rats [3] (no footshock, same times), the “tail-flick latencies in the absence of the stressor” value is “failed to alter tail-flick latencies in the absence of footshock”. Moreover, in assay [1] (1 mg/kg i.p. ten min prior to AA-5-HT 10 mg/kg i.p.), the “effect on AA-5-HT potentiation of stress analgesia” value is reported as “blocked”. For the same molecule, the “effect on stress analgesia (tail-flick latencies after footshock)” value in assay [1] (setting [7]) is “blocks SIA; also recorded: markedly attenuated”. In assay [2] (1 μg into dorsolateral periaqueductal gray, 5 min before footshock), the “effect on stress analgesia after site-specific administration” value was “suppressed; also recorded: blocked nonopioid stress analgesia”. The “basal nociceptive thresholds immediately prior to the stressor” value in assay [2] is on record as “absence of changes in basal nociceptive thresholds”.
On to `Cc1c(C(=O)c2cccc3ccccc23)c2cccc3c2n1[C@H](CN1CCOCC1)CO3` [WIN55,212-2], for which the “stress analgesia after acute cannabinoid” value in the assay with rats [4] (10 mg/kg i.p. on day 14, 24 h prior to footshock, vs vehicle) is recorded as “stress analgesia was increased”. The “post-injection tail-flick latencies (tolerance to cannabinoid antinociception)” value in the assay on rats [4] (10 mg/kg i.p. x 14 days, days 2, 7 and 14) is listed as “higher on day 2 compared to day 7 or 14; also recorded: induced tolerance to cannabinoid antinociception”. Further, the “stress analgesia in cannabinoid-tolerant rats” value in the assay on rats [4] (chronic 10 mg/kg i.p. x 14 days, footshock 24 h after last injection, vs vehicle or acute group) is “SIA was attenuated; also recorded: Stress analgesia was attenuated”.
Consider `CCCCC/C=C\C/C=C\C/C=C\C/C=C\CCCC(=O)NCCO` [anandamide, arachidonylethanolamide], for which, at vanilloid VR1 receptors, the “binding to VR1” value is on record as “binds to VR1 with low affinity”.
`Oc1cc2c(cc1O)CN(C(=S)NCCc1ccc(Cl)cc1)CCC2` [capsazepine]: the “effect on stress analgesia (tail-flick latencies after footshock)” value in assay [1] (10 mg/kg i.p. 20 min prior to footshock (capsazepine)) is given as “failed to alter SIA; also recorded: did not alter stress analgesia”.
Consider `CN1CC[C@]23c4c5ccc(O)c4O[C@H]2[C@@H](O)C=C[C@H]3[C@H]1C5` [morphine], for which the “post-morphine tail-flick latencies (tolerance to morphine antinociception)” value with rats [4] (10 mg/kg s.c. x 7 days, days 1 and 7) was “higher on day 1 compared to day 7”. Further, in the assay on rats [4] (chronic morphine 10 mg/kg s.c. x 7 days vs vehicle, footshock 24 h after last injection), the “stress analgesia in morphine-tolerant rats” value is recorded as “SIA did not differ; also recorded: No differences in stress analgesia”. In addition, in the assay with rats [5], the “morphine analgesia in cannabinoid-tolerant group relative to controls” value is “modest enhancement in morphine analgesia”. Further, the “post-morphine tail-flick latencies Mean±SEM” value in the assay with rats [5] (rats treated chronically with WIN55,212-2) was determined as 6.2 ± 0.25 s; in the assay with rats [5] (rats treated chronically with vehicle), 5.3 ± 0.21 s.
For `O=C1CC[C@@]2(O)[C@H]3Cc4ccc(O)c5c4[C@@]2(CCN3CC2CC2)[C@H]1O5` [naltrexone], the “effect on stress analgesia (tail-flick latencies after footshock)” value in assay [1] (14 mg/kg i.p. 20 min prior to footshock) is “not naltrexone or SR144528 blocks SIA; also recorded: neither the opioid antagonist naltrexone (14 mg/kg i.p.) nor the CB2 antagonist SR144528 altered stress analgesia”.
For the molecule `CCCCCc1cc(O)c2c(c1)OC(C)(C)[C@@H]1CCC(C)=C[C@@H]21` [Δ^9-THC, Δ^9-tetrahydrocannabinol], the “effect on stress analgesia (tail-flick latencies after footshock)” value in assay [1] (10 mg/kg i.p. 20 min prior to footshock (Δ^9-THC), vs vehicle) was “potentiated SIA relative to vehicle; also recorded: enhanced the magnitude and the duration of nonopioid stress analgesia”. Besides, in the assay with rats [6], the “Δ^9-THC-induced antinociception in shocked vs non-shocked rats” value is listed as “greater in rats subjected to footshock; also recorded: greater in rats subjected previously to the stressor”.
For SR144528, the “effect on stress analgesia (tail-flick latencies after footshock)” value in assay [1] (setting [7]) was “not naltrexone or SR144528 blocks SIA; also recorded: neither the opioid antagonist naltrexone (14 mg/kg i.p.) nor the CB2 antagonist SR144528 altered stress analgesia”.
